The record followed here is patent US20230391760A1, “HETEROCYCLIC GLP-1 AGONISTS” (Gasherbrum Bio, Inc., priority 2020, published 2023).

pEC50: −log10 of the molar value.

Chain of GLP-1 Receptor (P43220 24-463, species assumed): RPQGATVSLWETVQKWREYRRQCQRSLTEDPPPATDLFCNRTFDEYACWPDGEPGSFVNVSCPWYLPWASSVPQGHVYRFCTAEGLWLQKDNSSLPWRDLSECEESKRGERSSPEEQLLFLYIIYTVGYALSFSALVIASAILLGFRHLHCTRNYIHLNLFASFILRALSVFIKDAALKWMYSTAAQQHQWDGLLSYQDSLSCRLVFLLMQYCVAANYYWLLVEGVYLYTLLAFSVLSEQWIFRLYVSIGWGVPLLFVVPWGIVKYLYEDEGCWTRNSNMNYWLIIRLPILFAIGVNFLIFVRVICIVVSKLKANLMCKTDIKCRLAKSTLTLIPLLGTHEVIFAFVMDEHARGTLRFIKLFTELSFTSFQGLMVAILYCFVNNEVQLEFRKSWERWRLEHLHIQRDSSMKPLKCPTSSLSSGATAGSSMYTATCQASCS

The target of the assay is GLP-1 Receptor (Homo sapiens, UniProt P43220). In words: GLP-1R agonist cAMP stimulation assay (HEK293/GLP1R/CRE-LUC cells, cAMP dynamic 2 Kit). Format: cell-based. The conditions noted are these: HEK293/CRE-Luc cell line stably expressing the GLP-1 Receptor, 30 min at 37° C. How it is done:
Activation of GLP-1 receptor is known to stimulate cyclic AMP (cAMP) production in cells which indicates primary coupling to the Gαs subunit of the G protein heterotrimeric complex. […] To optimize functional activity directed toward Gαs coupling, a HEK293/CRE-Luc cell line developed by HDB stably expressing the GLP-1 Receptor was used. 200×concentration of compound working solutions were prepared (Agilent Technologies Bravo) with 1/2 log serial dilution in 384-well Echo LDV plate (Labcyte, Cat #LP-0200). 50 nL/well 200× concentration of compound working solutions were moved to 384-well white low volume plate (Greiner,Cat #784075) using Labcyte ECHO550. 1×10^5 cells/mL HEK293/GLP1R/CRE-LUC(HD Biosciences) cell suspensions prepared with assay buffer[DPBS containing 0.5 mM IBMX(Sigma, Cat #15879) and 0.1% BSA (GENVIEW, Cat #FA016-100 g)], 10 uL cell suspensions were added to each well of previous generated assay plate which already contains 50 nl compound at 200×concentration using ThermoFisher Multidrop Combi (1000 cells/well). Seal the plate and incubate at 37° C. with 5% CO2 for 30 min. After incubation the cAMP assay signal was generated using cAMP dynamic 2 Kit (Cisbio). 5 μL cAMP-d2 working solution was added to each well, followed with 5 μL Anti-cAMP antibody-cryptate working solution added to each well using ThermoFisher Multidrop Combi. Incubate at room temperature for 1 hour protected from light.
In turn, `O=C(O)Cc1ccc2c(c1)nc(CN1CC=C(c3cccc(OCc4ccc(Cl)cc4F)n3)CC1)n2C[C@@H]1CCO1` [Compound 112a, (S)-2-(2-((6-((4-chloro-2-fluorobenzyl)oxy)-3′,6′-dihydro-[2,4′-bipyridin]-1′(2′H)-yl)methyl)-1-(oxetan-2-ylmethyl)-1H-benzo[d]imidazol-5-yl)acetic acid] showed a pEC50 of 8.20.

For the molecule `O=C(O)CCc1ccc2c(c1)nc(CN1CC=C(c3cccc(OCc4ccc(Cl)cc4F)n3)CC1)n2C[C@@H]1CCO1` [Compound 113a, (S)-3-(2-((6-((4-chloro-2-fluorobenzyl)oxy)-3′,6′-dihydro-[2,4′-bipyridin]-1′(2′H)-yl)methyl)-1-(oxetan-2-ylmethyl)-1H-benzo[d]imidazol-5-yl)propanoic acid], the pEC50 is 7.42.

Molecule `CC(=O)Nc1ccc2c(c1)nc(CN1CCC(c3cccc4c3OC[C@@H](c3ccc(Cl)cc3F)O4)CC1)n2C[C@@H]1CCO1` [Compound 114a, N-(2-((4-((R)-2-(4-chloro-2-fluorophenyl)-2,3-dihydrobenzo[b][1,4]dioxin-5-yl)piperidin-1-yl)methyl)-1-(((S)-oxetan-2-yl)methyl)-1H-benzo[d]imidazol-5-yl)acetamide] had a pEC50 of 7.23.

Consider `CC(=O)Nc1ccc2c(c1)nc(CN1CCC(c3cccc4c3OC(C)(c3ccc(Cl)cc3F)O4)CC1)n2C[C@@H]1CCO1` (stereo partly drawn) [Compound 115a, N-(2-((4-(2-(4-chloro-2-fluorophenyl)-2-methylbenzo[d][1,3]dioxol-4-yl)piperidin-1-yl)methyl)-1-((S)-oxetan-2-ylmethyl)-1H-benzo[d]imidazol-5-yl)acetamide], for which the negative logarithm of the EC50 (pEC50) was 8.93.

The molecule `O=S1(=O)CCCN1c1ccc2c(c1)nc(CN1CCC(c3cccc(OCc4ccc(Cl)cc4F)n3)CC1)n2C[C@@H]1CCO1` [Compound 118a, (S)-2-(2-((4-(6-((4-chloro-2-fluorobenzyl)oxy)pyridin-2-yl)piperidin-1-yl)methyl)-1-(oxetan-2-ylmethyl)-1H-benzo[d]imidazol-5-yl)isothiazolidine 1,1-dioxide] gave a negative-log EC50 (pEC50) of 8.00.

`O=C1CCCN1c1ccc2c(c1)nc(CN1CCC(c3cccc(OCc4ccc(Cl)cc4F)n3)CC1)n2C[C@@H]1CCO1` [Compound 119a, 1-{2-[(4-{6-[(4-chloro-2-fluorophenyl)methoxy]pyridin-2-yl}piperidin-1-yl)methyl]-1-{[(2S)-oxetan-2-yl]methyl}-1H-1,3-benzodiazol-5-yl}pyrrolidin-2-one] gave a negative-log EC50 (pEC50) of 8.14. This pEC50 and that of the molecule before are within 0.2 log units of each other.

On to `O=C1OCCN1c1ccc2c(c1)nc(CN1CCC(c3cccc(OCc4ccc(Cl)cc4F)n3)CC1)n2C[C@@H]1CCO1` [Compound 120a, 3-{2-[(4-{6-[(4-chloro-2-fluorophenyl)methoxy]pyridin-2-yl}piperidin-1-yl)methyl]-1-{[(2S)-oxetan-2-yl]methyl}-1H-1,3-benzodiazol-5-yl}-1,3-oxazolidin-2-one], for which the negative logarithm of the EC50 (pEC50) is 8.40.

On to `O=c1[nH]ccn1-c1ccc2c(c1)nc(CN1CCC(c3cccc(OCc4ccc(Cl)cc4F)n3)CC1)n2C[C@@H]1CCO1` [Compound 122a, 1-{2-[(4-{6-[(4-chloro-2-fluorophenyl)methoxy]pyridin-2-yl}piperidin-1-yl)methyl]-1-{[(2S)-oxetan-2-yl]methyl}-1H-1,3-benzodiazol-5-yl}-2,3-dihydro-1H-imidazol-2-one], for which the pEC50 was 8.62. Compared with the last molecule, the pEC50 is 0.22 log units higher.

`O=C1NCCN1c1ccc2c(c1)nc(CN1CCC(c3cccc(OCc4ccc(Cl)cc4F)n3)CC1)n2C[C@@H]1CCO1` [Compound 123a, 1-{2-[(4-{6-[(4-chloro-2-fluorophenyl)methoxy]pyridin-2-yl}piperidin-1-yl)methyl]-1-{[(2S)-oxetan-2-yl]methyl}-1H-1,3-benzodiazol-5-yl}imidazolidin-2-one] had a negative-log EC50 (pEC50) of 8.40.

Molecule `Cn1ccc(-c2ccc3c(c2)nc(CN2CCC(c4cccc(OCc5ccc(Cl)cc5F)n4)CC2)n3C[C@@H]2CCO2)n1` [Compound 124a, 2-[(4-{6-[(4-chloro-2-fluorophenyl)methoxy]pyridin-2-yl}piperidin-1-yl)methyl]-5-(1-methyl-1H-pyrazol-3-yl)-1-{[(2S)-oxetan-2-yl]methyl}-1H-1,3-benzodiazole] had a negative logarithm of the EC50 (pEC50) of 9.11.

The molecule `Fc1cc(Cl)ccc1COc1cccc(C2CCN(Cc3nc4cc(-c5nnn[nH]5)ccc4n3C[C@@H]3CCO3)CC2)n1` [Compound 125a, 2-[(4-{6-[(4-chloro-2-fluorophenyl)methoxy]pyridin-2-yl}piperidin-1-yl)methyl]-1-{[(2S)-oxetan-2-yl]methyl}-5-(1H-1,2,3,4-tetrazol-5-yl)-1H-1,3-benzodiazole] had a negative logarithm of the EC50 (pEC50) of 10.25.

Molecule `O=C(Nc1ccc2c(c1)nc(CN1CCC(c3cccc(OCc4ccc(Cl)cc4F)n3)CC1)n2C[C@@H]1CCO1)C1CCO1` (stereo partly drawn) [Compound 129a, N-{2-[(4-{6-[(4-chloro-2-fluorophenyl)methoxy]pyridin-2-yl}piperidin-1-yl)methyl]-1-{[(2S)-oxetan-2-yl]methyl}-1H-1,3-benzodiazol-5-yl}oxetane-2-carboxamide] had a negative logarithm of the EC50 (pEC50) of 9.25.

In turn, `O=C(Cc1ccccc1)Nc1ccc2c(c1)nc(CN1CCC(c3cccc(OCc4ccc(Cl)cc4F)n3)CC1)n2C[C@@H]1CCO1` [Compound 130a, N-{2-[(4-{6-[(4-chloro-2-fluorophenyl)methoxy]pyridin-2-yl}piperidin-1-yl)methyl]-1-{[(2S)-oxetan-2-yl]methyl}-1H-1,3-benzodiazol-5-yl}-2-phenylacetamide] gave a negative logarithm of the EC50 (pEC50) of 8.29.

In the case of `CC(=O)Nc1cnc2c(c1)nc(CN1CCC(c3cccc(OCc4ccc(Cl)cc4F)n3)CC1)n2C[C@@H]1CCO1` [Compound 131a, N-{2-[(4-{6-[(4-chloro-2-fluorophenyl)methoxy]pyridin-2-yl}piperidin-1-yl)methyl]-3-{[(2S)-oxetan-2-yl]methyl}-3H-imidazo[4,5-b]pyridin-6-yl}acetamide], the negative logarithm of the EC50 (pEC50) was 8.20.

Turning to `CC(=O)Nc1ccc2c(c1)nc(CN1CC=C(c3cccc(OCc4ccc(Cl)cc4F)n3)CC1)n2C[C@@H]1CCO1` [Compound 135a, N-{2-[(4-{6-[(4-chloro-2-fluorophenyl)methoxy]pyridin-2-yl}-1,2,3,6-tetrahydropyridin-1-yl)methyl]-1-{[(2S)-oxetan-2-yl]methyl}-1H-1,3-benzodiazol-5-yl}acetamide], the negative logarithm of the EC50 (pEC50) was 9.19.

For the molecule `CNC(=O)Nc1ccc2c(c1)nc(CN1CCC(c3cccc(OCc4ccc(Cl)cc4F)n3)CC1)n2C[C@@H]1CCO1` [Compound 145a, 1-{2-[(4-{6-[(4-chloro-2-fluorophenyl)methoxy]pyridin-2-yl}piperidin-1-yl)methyl]-1-{[(2S)-oxetan-2-yl]methyl}-1H-1,3-benzodiazol-5-yl}-3-methylurea], the negative logarithm of the EC50 (pEC50) is 9.80.

On to `COC(=O)Nc1ccc2c(c1)nc(CN1CCC(c3cccc(OCc4ccc(Cl)cc4F)n3)CC1)n2C[C@@H]1CCO1` [Compound 146a, methyl N-{2-[(4-{6-[(4-chloro-2-fluorophenyl)methoxy]pyridin-2-yl}piperidin-1-yl)methyl]-1-{[(2S)-oxetan-2-yl]methyl}-1H-1,3-benzodiazol-5-yl}carbamate], for which the negative logarithm of the EC50 (pEC50) was 9.31. Compared with the last molecule, the pEC50 is 0.49 log units lower.

As to `Fc1cc(Cl)ccc1COc1cccc(C2CCN(Cc3nc4cc(-c5cn[nH]n5)ccc4n3C[C@@H]3CCO3)CC2)n1` [Compound 149a, 2-[(4-{6-[(4-chloro-2-fluorophenyl)methoxy]pyridin-2-yl}piperidin-1-yl)methyl]-1-{[(2S)-oxetan-2-yl]methyl}-5-(2H-1,2,3-triazol-4-yl)-1H-1,3-benzodiazole], the negative-log EC50 (pEC50) was 8.32.

One may read the pEC50 as the negative decadic logarithm of the EC50, by convention in mol/L. The low end stands for a large EC50, the high end for a small EC50.
